Data: patent publication US20070128685A1, “Methods and compositions for cell culture” (priority 2005, published 2007)

Columns and labels:
[1] = system: Normal human adult chondrocytes and normal rodent chondrocytes; experiment: Culture of chondrocytes in supplemented DMEM serum free media; assay type: cell-based; conditions: DMEM SFM, Collagenase 5 μg/ml; after 4, 6, and 9 passages
Experimental: Currently, there is not any SFM commercially available for chondrocytes. Using the serum-containing media available, the life-span of the chondrocytes in culture is very limited (up to 3 to 4 passages, between 10-15 doublings times). Thus, the present example illustrates the use of collagenase and forskolin to allow the used of SFM with chondrocytes.
Normal human adult chondrocytes and normal rodent chondrocytes were cultured in a SFM. Collagenase (5 μg/ml) was added into the DMEM serum free media (SFM) and tested on said primary and secondary chondrocytes cultures.

[2] = system: Human dermal adult and newborn skin fibroblasts; experiment: Proliferation of human dermal fibroblasts in media supplemented with collagenase; assay type: cell-based; conditions: primary and secondary culture
Experimental: Human dermal adult and newborn skin fibroblasts were cultured in a SFM and serum-containing media (DMEM 5% FBS). Collagenase ([…]) was added to the DMEM serum free media (SFM) and tested on primary and secondary culture of human adult and newborn fibroblasts. In both cases (SFM and DMEM 5%) Collagenase increase cell proliferation up to 2-2.5 fold over the controls.

Substance: Collagenase
- growth of chondrocytes [1]: robust growth
- increase of cell proliferation over the controls ([2]; DMEM serum free media (SFM), Collagenase 1 μg/nl): 2-2.5 fold
- increase of cell proliferation over the controls ([2]; serum-containing media (DMEM 5% FBS)): 2-2.5 fold
